In patent US20240269298A1, “PHOSPHONYL DERIVATIVE, AND COMPOSITION AND PHARMACEUTICAL APPLICATION THEREOF” (XIZANG HAISCO PHARMACEUTICAL CO., LTD., priority 2021, published 2024):
Read-outs that look alike come from different tables or passages of the source.

Tested on: NCI-H1975 (EGFR-L858R-T790M) cells
Assay: Inhibitory activity on proliferation of NCI-H1975 (EGFR-L858R-T790M) cells (CTG, 72 h)
Assay type: cell-based
Conditions: Homo sapiens
Method: NCI-H1975 (EGFR-L858R-T790M) and A431 (EGFR-WT) cells were purchased from ATCC and cultured in an incubator at 37° C. with 5% CO2, and the culture mediums were RPMI1640+10% FBS and DMEM+10% FBS, respectively. On the first day, NCI-H1975 (EGFR-L858R-T790M) and A431 (EGFR-WT) cells in the logarithmic phase were collected, and viable cells were counted using an automatic cell analyzer (countstar). The cell suspensions were adjusted with the culture mediums and plated on a 96-well cell culture plate at 1000 cells/well for NCI-H1975 (EGFR-L858R-T790M) cells and at 3000 cells/well for A431 cells. The next day, the culture mediums were aspirated, and 90 μL of fresh culture mediums and 10 μL of the compounds at different concentrations were added to each well, wherein the final concentration of DMSO in each well was 0.1%. The plate was cultured in the incubator at 37° C. with 5% CO2 for 72 hours. After 72 hours of drug treatment, 50 μL of CTG solution (promega, G7572), which was already pre-melted and equilibrated to room temperature, was added to each well, and the mixtures were uniformly mixed for 2 min using a microplate shaker. The plate was placed at room temperature for 10 min, and then […] signal values were measured using a microplate reader (PHERAstar FSX).
Surviving cells % was calculated based on Vsample/Vvehicle control×100%, wherein Vsample was the readout of the drug-treated group, and Vvehicle control was the average value of the vehicle control group. Using the origin 9.2 software and nonlinear regression model, S-shaped dose-survival curves were plotted, and IC50 values were calculated.

[1] = read-out: IC50 (value in brackets)

Row | IC50 (read-out: IC50 (class symbol)) | IC50 [1] | Structure (SMILES)
1 | < 0.1 µM | 0.01 µM | COc1cc(N2CCC(N3CCC4(CCCN(c5ccc6c(c5)C(=O)N(C5CCC(=O)NC5=O)C6=O)C4)CC3)CC2)c(-c2cnn(C)c2)cc1Nc1ncc(Br)c(Nc2ccc3nccnc3c2P(C)(C)=O)n1 (stereo not shown) [Compound 32, 5-(9-(1-(4-((5-bromo-4-((5-(dimethylphosphoryl)quinoxalin-6-yl)amino)pyrimidin-2-yl)amino)-5-methoxy-2-(1-methyl-1H-pyrazol-4-yl)phenyl)piperidin-4-yl)-2,9-diazaspiro[5.5]undecan-2-yl)-2-(2,6-dioxopiperidin-3-yl)isoindoline-1,3-dione]
2 | < 0.1 µM | 0.028 µM | COc1cc(N2CCC(N3CCC4(CCCN(c5cc6c(cc5F)C(=O)N(C5CCC(=O)NC5=O)C6=O)C4)CC3)CC2)c(-c2cnn(C)c2)cc1Nc1ncc(Br)c(Nc2ccc3nccnc3c2P(C)(C)=O)n1 (stereo not shown) [Compound 33, 5-(9-(1-(4-((5-bromo-4-((5-(dimethylphosphoryl)quinoxalin-6-yl)amino)pyrimidin-2-yl)amino)-5-methoxy-2-(1-methyl-1H-pyrazol-4-yl)phenyl)piperidin-4-yl)-2,9-diazaspiro[5.5]undecan-2-yl)-2-(2,6-dioxopiperidin-3-yl)-6-fluoroisoindoline-1,3-dione]
3 | < 0.1 µM | 0.08 µM | COc1cc(N2CCC(N3CCC(CN4CCN(c5ccc6c(c5)C(=O)N(C5CCC(=O)NC5=O)C6=O)CC4)CC3)CC2)c(-c2cnn(C)c2)cc1Nc1ncc(Br)c(Nc2ccc(-c3ccccc3)cc2P(C)(C)=O)n1 (stereo not shown) [Compound 43, 5-(4-((1′-(4-((5-bromo-4-((3-(dimethylphosphoryl)-[1,1′-biphenyl]-4-yl)amino)pyrimidin-2-yl)amino)-5-methoxy-2-(1-methyl-1H-pyrazol-4-yl)phenyl)-[1,4′-bipiperidin]-4-yl)methyl)piperazin-1-yl)-2-(2,6-dioxopiperidin-3-yl)isoindoline-1,3-dione]
4 | 0.1 to 0.5 µM | 0.301 µM | COc1cc(N2CCC(CN3CCCC4(CCN(c5ccc6c(c5)C(=O)N(C5CCC(=O)NC5=O)C6=O)CC4)C3)CC2)c(-c2cnn(C)c2)cc1Nc1ncc(Br)c(Nc2ccc(-c3ccccc3)cc2P(C)(C)=O)n1 (stereo not shown) [Compound 44, 5-(2-((1-(4-((5-bromo-4-((3-(dimethylphosphoryl)-[1,1′-biphenyl]-4-yl)amino)pyrimidin-2-yl)amino)-5-methoxy-2-(1-methyl-1H-pyrazol-4-yl)phenyl)piperidin-4-yl)methyl)-2,9-diazaspiro[5.5]undecan-9-yl)-2-(2,6-dioxopiperidin-3-yl)isoindoline-1,3-dione]
5 | 0.1 to 0.5 µM | 0.266 µM | COc1cc(N2CCC(CN3CCCC4(CCN(c5ccc6c(c5)C(=O)N(C5CCC(=O)NC5=O)C6=O)CC4)C3)CC2)c(-c2cnn(C)c2)cc1Nc1ncc(Cl)c(Nc2ccc(-c3ccccc3)cc2P(C)(C)=O)n1 (stereo not shown) [Compound 49, 5-(2-((1-(4-((5-chloro-4-((3-(dimethylphosphoryl)-[1,1′-biphenyl]-4-yl)amino)pyrimidin-2-yl)amino)-5-methoxy-2-(1-methyl-1H-pyrazol-4-yl)phenyl)piperidin-4-yl)methyl)-2,9-diazaspiro[5.5]undecan-9-yl)-2-(2,6-dioxopiperidin-3-yl)isoindoline-1,3-dione]
6 | < 0.1 µM | 0.072 µM | COc1cc(N2CCC3(CCN(CC4CCN(c5cc6c(cc5F)C(=O)N(C5CCC(=O)NC5=O)C6=O)CC4)CC3)CC2)c(-c2cnn(C)c2)cc1Nc1ncc(Cl)c(Nc2ccc(-c3ccccc3)cc2P(C)(C)=O)n1 (stereo not shown) [Compound 51, 5-(4-((9-(4-((5-chloro-4-((3-(dimethylphosphoryl)-[1,1′-biphenyl]-4-yl)amino)pyrimidin-2-yl)amino)-5-methoxy-2-(1-methyl-1H-pyrazol-4-yl)phenyl)-3,9-diazaspiro[5.5]undecan-3-yl)methyl)piperidin-1-yl)-2-(2,6-dioxopiperidin-3-yl)-6-fluoroisoindoline-1,3-dione]
7 | < 0.1 µM | 0.084 µM | COc1cc(N2CCC(CN3CCC4(CC3)CCN(c3cc5c(cc3F)C(=O)N(C3CCC(=O)NC3=O)C5=O)CC4)CC2)c(-c2cnn(C)c2)cc1Nc1ncc(Cl)c(Nc2ccc(-c3ccccc3)cc2P(C)(C)=O)n1 (stereo not shown) [Compound 52, 5-(9-((1-(4-((5-chloro-4-((3-(dimethylphosphoryl)-[1,1′-biphenyl]-4-yl)amino)pyrimidin-2-yl)amino)-5-methoxy-2-(1-methyl-1H-pyrazol-4-yl)phenyl)piperidin-4-yl)methyl)-3,9-diazaspiro[5.5]undecan-3-yl)-2-(2,6-dioxopiperidin-3-yl)-6-fluoroisoindoline-1,3-dione]
8 | 0.1 to 0.5 µM | 0.182 µM | COc1cc(N2CCC(N3CCC(CN4CCN(c5ccc6c(c5)C(=O)N(C5CCC(=O)NC5=O)C6=O)CC4)CC3)CC2)c(-c2cnn(C)c2)cc1Nc1ncc(Cl)c(Nc2ccc(-c3ccccc3)cc2P(C)(C)=O)n1 (stereo not shown) [Compound 53, 5-(4-((1′-(4-((5-chloro-4-((3-(dimethylphosphoryl)-[1,1′-biphenyl]-4-yl)amino)pyrimidin-2-yl)amino)-5-methoxy-2-(1-methyl-1H-pyrazol-4-yl)phenyl)-[1,4′-bipiperidin]-4-yl)methyl)piperazin-1-yl)-2-(2,6-dioxopiperidin-3-yl)isoindoline-1,3-dione]
9 | < 0.1 µM | 0.082 µM | COc1cc(N2CCC(CN3CCN(c4ccc(C(=O)NC5CCC(=O)NC5=O)nc4)CC3)CC2)c(-c2cnn(C)c2)cc1Nc1ncc(Br)c(Nc2ccc(-c3ccccc3)cc2P(C)(C)=O)n1 (stereo not shown) [Compound 64, 5-(4-((1-(4-((5-bromo-4-((3-(dimethylphosphoryl)-[1,1′-biphenyl]-4-yl)amino)pyrimidin-2-yl)amino)-5-methoxy-2-(1-methyl-1H-pyrazol-4-yl)phenyl)piperidin-4-yl)methyl)piperazin-1-yl)-N-(2,6-dioxopiperidin-3-yl)picolinamide]
10 | < 0.1 µM | 0.034 µM | COc1cc(N2CCC(CN3CCC4(CC3)CCN(c3ccc(C(=O)NC5CCC(=O)NC5=O)nc3)CC4)CC2)c(-c2cnn(C)c2)cc1Nc1ncc(Br)c(Nc2ccc(-c3ccccc3)cc2P(C)(C)=O)n1 (stereo not shown) [Compound 69, 5-(9-((1-(4-((5-bromo-4-((3-(dimethylphosphoryl)-[1,1′-biphenyl]-4-yl)amino)pyrimidin-2-yl)amino)-5-methoxy-2-(1-methyl-1H-pyrazol-4-yl)phenyl)piperidin-4-yl)methyl)-3,9-diazaspiro[5.5]undecan-3-yl)-N-(2,6-dioxopiperidin-3-yl)picolinamide]
11 | < 0.1 µM | 0.039 µM | COc1cc(N2CCC(CN3CCC4(CC3)CCN(c3ccc(C(=O)NC5CCC(=O)NC5=O)nc3)CC4)CC2)c(-c2cnn(C)c2)cc1Nc1ncc(Cl)c(Nc2ccc(-c3ccccc3)cc2P(C)(C)=O)n1 (stereo not shown) [Compound 70, 5-(9-((1-(4-((5-chloro-4-((3-(dimethylphosphoryl)-[1,1′-biphenyl]-4-yl)amino)pyrimidin-2-yl)amino)-5-methoxy-2-(1-methyl-1H-pyrazol-4-yl)phenyl)piperidin-4-yl)methyl)-3,9-diazaspiro[5.5]undecan-3-yl)-N-(2,6-dioxopiperidin-3-yl)picolinamide]
